In patent US20230203060A1 (GENFLEET THERAPEUTICS (SHANGHAI) INC., priority 2020, published 2023):

Biological target: T1, KRAS G12C (Homo sapiens, UniProt P01116, G12C)
T1 construct: purchased Reactionbiology
Assay: KRAS G12C NEA-HTRF experiment (SOS1-catalyzed displacement of GDP by GTP)
Type: biochemical
Method in brief: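 His-tagged KRAS G12C preloaded with DY647-GDP was preincubated 15 min at 20 °C with compound, then exchanged with SOS1 (0.2 μM working solution) and GTP (200 μM working solution) for 2 h at 20 °C in the dark. HTRF 665/615 nm ratio with anti-His-Tb was normalised to T0 and no-compound controls; IC50 by four-parameter fit.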

T1 sequence (P01116 1-188 isoform P01116-2 G12C): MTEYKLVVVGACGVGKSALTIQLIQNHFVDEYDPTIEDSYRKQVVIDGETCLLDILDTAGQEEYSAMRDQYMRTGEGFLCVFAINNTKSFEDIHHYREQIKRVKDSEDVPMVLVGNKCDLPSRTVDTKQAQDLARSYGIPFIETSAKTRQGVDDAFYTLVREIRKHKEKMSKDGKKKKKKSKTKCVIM

Row | IC50 | Structure (SMILES)
1 | 42 nM | C=CC(=O)N1CCN2C(=O)c3c(N4C[C@@H](O)CC4(C)C)nc(-c4c(N)cccc4F)c(F)c3OC[C@H]2C1 [Z481, (6aR)-8-acryloyl-3-(2-amino-6-fluorophenyl)-4-fluoro-1-((S)-4-hydroxy-2,2-dimethylpyrrolidin-1-yl)-6,6a,7,8,9,10-hexahydro-12H-pyrazino[2,1-c]pyrido[3,4-f][1,4]oxazepin-12-one]
2 | 142 nM | C=CC(=O)N1CCN2C(=O)c3c(N4CCN(C)C[C@@H]4C)nc(-c4c(O)cccc4F)c(Cl)c3OC[C@H]2C1 [Z51, (6aR)-8-acryloyl-4-chloro-1-((S)-2,4-dimethylpiperazin-1-yl)-3-(2-fluoro-6-hydroxyphenyl)-6,6a,7,8,9,10-hexahydro-12H-pyrazino[2,1-c]pyrido[3,4-f][1,4]oxazepin-12-one]
3 | 18.3 nM | C=CC(=O)N1CCN2C(=O)c3c(N4CCC(OC)C4(C)C)nc(-c4c(N)cccc4F)c(Cl)c3OC[C@H]2C1 (stereo partly drawn) [Z506, (6aR)-8-acryloyl-3-(2-amino-6-fluorophenyl)-4-chloro-1-(3-methoxy-2,2-dimethylpyrrolidin-1-yl)-6,6a,7,8,9,10-hexahydro-12H-pyrazino[2,1-c]pyrido[3,4-f][1,4]oxazepin-12-one]
4 | 22.7 nM | C=CC(=O)N1CCN2C(=O)c3c(N4C[C@@H](N5CCN(C)CC5)CC4(C)C)nc(-c4c(F)cccc4Cl)c(Cl)c3OC[C@H]2C1 (single isomer, unassigned) [Z635-1]
5 | 167 nM | C=CC(=O)N1CCN2C(=O)c3c(N4CCOC(C)(C)C4)nc(-c4c(O)cccc4F)c(Cl)c3OC[C@H]2C1 [Z37, (6aR)-8-acryloyl-4-chloro-1-(2,2-dimethylmorpholino)-3-(2-fluoro-6-hydroxyphenyl)-6,6a,7,8,9,10-hexahydro-12H-pyrazino[2,1-c]pyrido[3,4-f][1,4]oxazepin-12-one]
6 | 171 nM | C=CC(=O)N1CCN2C(=O)c3c(OC4CCCN(C)C4)nc(-c4c(O)cccc4F)c(Cl)c3OC[C@H]2C1 (stereo partly drawn) [Z43, (6aR)-8-acryloyl-4-chloro-3-(2-fluoro-6-hydroxyphenyl)-1-((1-methylpiperidin-3-yl)oxy)-6,6a,7,8,9,10-hexahydro-12H-pyrazino[2,1-c]pyrido[3,4-f][1,4]oxazepin-12-one]
7 | 1930 nM | C=CC(=O)N1CCN2C(=O)c3c(N4C[C@@H](C)N(C)C[C@@H]4C)nc(-c4ccccc4F)c(Cl)c3OC[C@H]2C1 [Z464]
8 | 105 nM | C=CC(=O)N1CCN2C(=O)c3c(N4C[C@@H](N(C)C)CC4(C)C)nc(-c4cccc(F)c4F)c(Cl)c3OC[C@H]2C1 [Z473-1, (R)-8-acryloyl-4-chloro-3-(2,3-difluorophenyl)-1-((S)-4-(dimethylamino)-2,2-dimethylpyrrolidin-1-yl)-6,6a,7,8,9,10-hexahydro-12H-pyrazino[2,1-c]pyrido[3,4-f][1,4]oxazepin-12-one]
9 | 298 nM | C=CC(=O)N1CCN2C(=O)c3c(N4CCN(C)[C@@H](C)[C@@H]4C)nc(-c4ccccc4F)c(Cl)c3OC[C@H]2C1 [Z653, (R)-8-acryloyl-4-chloro-3-(2-fluorophenyl)-1-((2S,3S)-2,3,4-trimethylpiperazin-1-yl)-6,6a,7,8,9,10-hexahydro-12H-pyrazino[2,1-c]pyrido[3,4-f][1,4]oxazepin-12 (6aH)-one]
10 | 461 nM | C=CC(=O)N1CCN2C(=O)c3c(N4C[C@H](N5CCC5)CC4(C)C)nc(-c4ccccc4F)c(Cl)c3OC[C@H]2C1 (single isomer, unassigned) [Z471-2]
11 | 133 nM | C=CC(=O)N1CCN2C(=O)c3c(NC(C)(C)C)nc(-c4ccccc4F)c(Cl)c3OC[C@H]2C1 [Z457, (R)-8-acryloyl-1-(tert-butylamino)-4-chloro-3-(2-fluorophenyl)-6,6a,7,8,9,10-hexahydro-12H-pyrazino[2,1-c]pyrido[3,4-f][1,4]oxazepin-12-one]
12 | 258 nM | C=CC(=O)N1CCN2C(=O)c3c(N4C[C@H](N5CCN(C)CC5)C[C@@H]4C)nc(-c4ccccc4F)c(Cl)c3OC[C@H]2C1 [Z470-1]
